From patent US20240116985A1, “STAPLED PEPTIDES AND METHODS THEREOF” (priority 2020, published 2024) come the findings set out here.

Assay [1] addresses T1, full-length beta-Catenin (Uniprot ID P35222) (Homo sapiens, UniProt P35222).
T1 construct: 10 nM full-length beta-Catenin (Uniprot ID P35222)
T1 sequence (P35222 1-781): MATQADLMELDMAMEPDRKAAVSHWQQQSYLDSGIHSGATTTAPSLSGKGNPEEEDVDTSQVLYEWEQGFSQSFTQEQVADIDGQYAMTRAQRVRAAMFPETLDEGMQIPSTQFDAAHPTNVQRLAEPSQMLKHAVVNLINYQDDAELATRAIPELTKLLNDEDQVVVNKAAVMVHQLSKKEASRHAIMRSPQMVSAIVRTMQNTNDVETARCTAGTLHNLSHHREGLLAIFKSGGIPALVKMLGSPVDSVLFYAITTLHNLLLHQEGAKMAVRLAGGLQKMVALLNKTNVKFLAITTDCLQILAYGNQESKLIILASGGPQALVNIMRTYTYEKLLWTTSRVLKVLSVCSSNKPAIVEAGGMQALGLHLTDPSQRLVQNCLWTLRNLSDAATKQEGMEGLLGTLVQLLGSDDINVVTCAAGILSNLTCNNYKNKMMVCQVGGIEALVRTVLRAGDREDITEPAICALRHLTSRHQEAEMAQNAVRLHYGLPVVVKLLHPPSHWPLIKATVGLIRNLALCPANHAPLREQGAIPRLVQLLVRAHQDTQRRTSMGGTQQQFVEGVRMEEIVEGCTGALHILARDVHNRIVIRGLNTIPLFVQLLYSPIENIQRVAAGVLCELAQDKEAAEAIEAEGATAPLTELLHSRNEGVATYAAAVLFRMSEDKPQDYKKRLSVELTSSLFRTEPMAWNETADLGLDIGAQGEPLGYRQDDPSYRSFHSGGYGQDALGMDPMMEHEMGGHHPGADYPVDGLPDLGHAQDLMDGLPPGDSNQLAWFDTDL
The assay is described as follows: Fluorescence polarization IC50 (beta-catenin / 5FAM-TCF4 10-53 competition). The format is binding. The conditions noted are these: fluorescence polarization; read-out: beta-Catenin FP IC50.

For assay [2], the target named is T2, beta-catenin/TCF4 engagement (Homo sapiens, UniProt P35222).
T2 construct: expressed in transfected cells; host or cells: HEK293
T2 sequence (P35222 1-781): T1 sequence (P35222 1-781)
The assay is described as follows: Nano-BRET target engagement assay (B-cat-Halo & TCF4-Luc in HEK293 cells). The conditions noted are these: absolute IC50; read-out: NanoBRET Abs IC50. The format is cell-based.

Assay [3] deals with TCF/LEF luciferase Reporter in DLD1 cells. The assay is described as follows: TCF reporter assay (DLD1 TCF/LEF luciferase reporter, Bright-Glo). The format is cell-based. The conditions noted are these: read-out: DLD1 4% Abs IC50; DLD1 reporter, 4%, absolute IC50. An outline of the steps:
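DLD1 cells stably carrying a TCF/LEF luciferase reporter were plated at 5000 cells/well in RPMI + 4% FBS and treated overnight with a 1:2 compound dilution series. Bright-Glo luminescence read on day 3; viability by CellTiter-Glo. Absolute IC50 determined.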

Structures are written as SMILES. Where only a bound is given, the exact number is not on record here.

For orientation: IC50 means the concentration needed to halve the response being measured. In the case of `CC(=O)N1CCC[C@]12CC=CCCCC1(CCCC=CCCCOC(=O)N3CC[C@@](C(=O)N[C@@H](Cc4ccccc4C(F)(F)F)C(=O)N[C@@H](Cc4csc5ccccc45)C(=O)N[C@@H](CCC(N)=O)C(=O)N[C@@H](CC(C)C)C(=O)NC4(C(N)=O)CCC4)(C3)NC(=O)[C@H](CC(C)C)NC(=O)[C@H](Cc3ccccc3)NC(=O)[C@H](C)NC(=O)[C@H](C)NC(=O)[C@H](Cc3cccc(C(=O)O)c3)NC(=O)[C@H](CC(=O)O)NC1=O)NC(=O)[C@H](CC(C)(C)C)NC(=O)[C@H](CC(=O)O)NC2=O` (stereo partly drawn) [I-2388, Ac-PL3-Asp-Npg-B5-Asp-3COOHF-Ala-Ala-Phe-Leu-PyrS2-2F3MeF-BztA-Gln-Leu-Cbg-NH2], the IC50 in assay [1] is 0.133 µM; in assay [2] it was 5.7 µM; in assay [3], 1.2 µM.
On the same counts, the results for `CC(=O)N1CCC[C@]12CC=CCCCC1(CCCC=CCCCOC(=O)N3CC[C@@](C(=O)N[C@@H](Cc4ccccc4C(F)(F)F)C(=O)N[C@@H](Cc4csc5ccccc45)C(=O)N[C@@H](CCC(N)=O)C(=O)N[C@@H](CC(C)C)C(=O)N[C@@H](CC(N)=O)C(N)=O)(C3)NC(=O)[C@H](CC(C)C)NC(=O)[C@H](Cc3ccccc3)NC(=O)[C@H](C)NC(=O)[C@H](C)NC(=O)[C@H](Cc3cccc(C(=O)O)c3)NC(=O)[C@H](CC(=O)O)NC1=O)NC(=O)[C@H](CC(C)(C)C)NC(=O)[C@H](CC(=O)O)NC2=O` (stereo partly drawn) [I-2390, Ac-PL3-Asp-Npg-B5-Asp-3COOHF-Ala-Ala-Phe-Leu-PyrS2-2F3MeF-BztA-Gln-Leu-Asn-NH2] are 0.022 µM, 9.1 µM and 1.4 µM.
On the same counts, the results for `CCCC[C@H](NC(=O)[C@H](CC(C)C)NC(=O)[C@H](CCC(N)=O)NC(=O)[C@H](Cc1csc2ccccc12)NC(=O)[C@H](Cc1ccccc1C(F)(F)F)NC(=O)[C@]12CCN(C1)C(=O)OCCCC=CCCCC1(CCCC=CC[C@]3(CCCN3C(C)=O)C(=O)N[C@@H](CC(=O)O)C(=O)N[C@@H](CC(C)(C)C)C(=O)N1)C(=O)N[C@@H](CC(=O)O)C(=O)N[C@@H](Cc1cccc(C(=O)O)c1)C(=O)N[C@@H](C)C(=O)N[C@@H](C)C(=O)N[C@@H](Cc1ccccc1)C(=O)N[C@@H](CC(C)C)C(=O)N2)C(N)=O` (stereo partly drawn) [I-2391, Ac-PL3-Asp-Npg-B5-Asp-3COOHF-Ala-Ala-Phe-Leu-PyrS2-2F3MeF-BztA-Gln-Leu-nLeu-NH2] are 0.11 µM, 8.2 µM and 0.7 µM.
For `CC(=O)N1CCC[C@]12CC=CCCCC1(CCCC=CCCCOC(=O)N3CC[C@@](C(=O)N[C@@H](Cc4ccccc4C(F)(F)F)C(=O)N[C@@H](Cc4csc5ccccc45)C(=O)N[C@@H](CCC(N)=O)C(=O)N[C@@H](CC(C)C)C(=O)N[C@@H](CCCNC(=N)N)C(N)=O)(C3)NC(=O)[C@H](CC(C)C)NC(=O)[C@H](Cc3ccccc3)NC(=O)[C@H](C)NC(=O)[C@H](C)NC(=O)[C@H](Cc3cccc(C(=O)O)c3)NC(=O)[C@H](CC(=O)O)NC1=O)NC(=O)[C@H](CC(C)(C)C)NC(=O)[C@H](CC(=O)O)NC2=O` (stereo partly drawn) [I-2393, Ac-PL3-Asp-Npg-B5-Asp-3COOHF-Ala-Ala-Phe-Leu-PyrS2-2F3MeF-BztA-Gln-Leu-Arg-NH2], in that order: 0.061 µM, more than 20 µM and 5.6 µM.
Turning to `CC(=O)N1CCC[C@]12CC=CCCCC1(CCCC=CCCCOC(=O)N3CC[C@@](C(=O)N[C@@H](Cc4ccccc4C(F)(F)F)C(=O)N[C@@H](Cc4csc5ccccc45)C(=O)N[C@@H](CCC(N)=O)C(=O)N[C@@H](CC(C)C)C(=O)N[C@H](C)C(N)=O)(C3)NC(=O)[C@H](CC(C)C)NC(=O)[C@H](Cc3ccccc3)NC(=O)[C@H](C)NC(=O)[C@H](C)NC(=O)[C@H](Cc3cccc(C(=O)O)c3)NC(=O)[C@H](CC(=O)O)NC1=O)NC(=O)[C@H](CC(C)(C)C)NC(=O)[C@H](CC(=O)O)NC2=O` (stereo partly drawn) [I-2395, Ac-PL3-Asp-Npg-B5-Asp-3COOHF-Ala-Ala-Phe-Leu-PyrS2-2F3MeF-BztA-Gln-Leu-dAla-NH2], the IC50 in assay [1] was found to be 0.028 µM; in assay [2] it was 5.5 µM; in assay [3], 1.2 µM.
Turning to `CC(=O)N1CCC[C@]12CC=CCCCC1(CCCC=CCCCOC(=O)N3CC[C@@](C(=O)N[C@@H](Cc4ccccc4C(F)(F)F)C(=O)N[C@@H](Cc4csc5ccccc45)C(=O)N[C@@H](CCC(N)=O)C(=O)N[C@@H](CC(C)C)C(=O)N[C@H](CCC(N)=O)C(N)=O)(C3)NC(=O)[C@H](CC(C)C)NC(=O)[C@H](Cc3ccccc3)NC(=O)[C@H](C)NC(=O)[C@H](C)NC(=O)[C@H](Cc3cccc(C(=O)O)c3)NC(=O)[C@H](CC(=O)O)NC1=O)NC(=O)[C@H](CC(C)(C)C)NC(=O)[C@H](CC(=O)O)NC2=O` (stereo partly drawn) [I-2398, Ac-PL3-Asp-Npg-B5-Asp-3COOHF-Ala-Ala-Phe-Leu-PyrS2-2F3MeF-BztA-Gln-Leu-dGln-NH2], the values for the IC50 in assay [1], in assay [2] and in assay [3] were 0.028 µM, 3.6 µM and 1.3 µM, respectively.
For `CC(=O)N1CCC[C@]12CC=CCCCC1(CCCC=CCCCOC(=O)N3CC[C@@](C(=O)N[C@@H](Cc4ccccc4C(F)(F)F)C(=O)N[C@@H](Cc4csc5ccccc45)C(=O)N[C@@H](CCC(N)=O)C(=O)N[C@@H](C)C(=O)N[C@@H](C)C(N)=O)(C3)NC(=O)[C@H](CC(C)C)NC(=O)[C@H](Cc3ccccc3)NC(=O)[C@H](C)NC(=O)[C@H](C)NC(=O)[C@H](Cc3cccc(C(=O)O)c3)NC(=O)[C@H](CC(=O)O)NC1=O)NC(=O)[C@H](CC(C)(C)C)NC(=O)[C@H](CC(=O)O)NC2=O` (stereo partly drawn) [I-2399, Ac-PL3-Asp-Npg-B5-Asp-3COOHF-Ala-Ala-Phe-Leu-PyrS2-2F3MeF-BztA-Gln-Ala-Ala-NH2], in that order: 0.017 µM, 2.8 µM and 2.2 µM.
For `CC(=O)N1CCC[C@]12CC=CCCCC1(CCCC=CCCCOC(=O)N3CC[C@@](C(=O)N[C@@H](Cc4ccccc4C(F)(F)F)C(=O)N[C@@H](Cc4csc5ccccc45)C(=O)N[C@@H](CCC(N)=O)C(=O)N[C@@H](Cc4ccccc4)C(=O)N[C@@H](C)C(N)=O)(C3)NC(=O)[C@H](CC(C)C)NC(=O)[C@H](Cc3ccccc3)NC(=O)[C@H](C)NC(=O)[C@H](C)NC(=O)[C@H](Cc3cccc(C(=O)O)c3)NC(=O)[C@H](CC(=O)O)NC1=O)NC(=O)[C@H](CC(C)(C)C)NC(=O)[C@H](CC(=O)O)NC2=O` (stereo partly drawn) [I-2400, Ac-PL3-Asp-Npg-B5-Asp-3COOHF-Ala-Ala-Phe-Leu-PyrS2-2F3MeF-BztA-Gln-Phe-Ala-NH2], in that order: 0.142 µM, 2.5 µM and 0.8 µM.
For `CC(=O)N1CCC[C@]12CC=CCCCC1(CCCC=CCCCOC(=O)N3CC[C@@](C(=O)N[C@@H](Cc4ccccc4C(F)(F)F)C(=O)N[C@@H](Cc4csc5ccccc45)C(=O)N[C@@H](CCC(N)=O)C(=O)N[C@H](C(=O)N[C@@H](C)C(N)=O)C(C)C)(C3)NC(=O)[C@H](CC(C)C)NC(=O)[C@H](Cc3ccccc3)NC(=O)[C@H](C)NC(=O)[C@H](C)NC(=O)[C@H](Cc3cccc(C(=O)O)c3)NC(=O)[C@H](CC(=O)O)NC1=O)NC(=O)[C@H](CC(C)(C)C)NC(=O)[C@H](CC(=O)O)NC2=O` (stereo partly drawn) [I-2401, Ac-PL3-Asp-Npg-B5-Asp-3COOHF-Ala-Ala-Phe-Leu-PyrS2-2F3MeF-BztA-Gln-Val-Ala-NH2], in that order: 0.037 µM, 4.4 µM and 0.8 µM.
As to `CC(=O)N1CCC[C@]12CC=CCCCC1(CCCC=CCCCOC(=O)N3CC[C@@](C(=O)N[C@@H](Cc4ccsc4)C(=O)N[C@@H](Cc4csc5ccccc45)C(=O)N[C@H](C(N)=O)[C@@H](C)O)(C3)NC(=O)[C@H](CC(N)=O)NC(=O)[C@H](Cc3ccccc3)NC(=O)[C@H](C)NC(=O)C(C)(C)NC(=O)[C@H]([C@@H](C)O)NC(=O)[C@H](CC(N)=O)NC1=O)NC(=O)[C@H](CC(C)(C)C)NC(=O)[C@H](CC(=O)O)NC2=O` (stereo partly drawn) [I-2416, Ac-PL3-Asp-Npg-B5-Asn-Thr-Aib-Ala-Phe-Asn-PyrS2-3Thi-BztA-Thr-NH2], the IC50 in assay [1] was 0.133 µM; in assay [2], more than 20 µM; in assay [3], more than 20 µM.
For `CC(=O)N1CCC[C@]12CC=CCCCC1(CCCC=CCCCOC(=O)N3CC[C@@](C(=O)N[C@@H](Cc4ccccc4)C(=O)N[C@@H](Cc4csc5ccccc45)C(=O)N[C@@H](CC(=O)N4CCOCC4)C(N)=O)(C3)NC(=O)[C@H](CC(C)C)NC(=O)[C@H](Cc3ccccc3)NC(=O)[C@H](C)NC(=O)[C@H](CCCCNC(C)C)NC(=O)[C@H](CCC(N)=O)NC(=O)[C@H](CC(=O)O)NC1=O)NC(=O)[C@H](CC1CCCCC1)NC(=O)[C@H](CC(N)=O)NC2=O` (stereo partly drawn) [I-2426, Ac-PL3-Asn-Cha-B5-Asp-Gln-iPrLys-Ala-Phe-Leu-PyrS2-Phe-BztA-MorphAsn-NH2], the IC50 is 0.046 µM in assay [1], more than 20 µM in assay [2] and more than 20 µM in assay [3].
